In patent EP4702986A1, “POLYPEPTIDE AND USE THEREOF” (Biocells (Beijing) Biotech Co., Ltd., priority 2023, dated 2024):
Read-outs that look alike come from different tables or passages of the source. Numbered stars: 1 amine (or outer) side, 2 acyl side, 3 side chain; on linkers, the order of the positions; unused ones are H or OH. Bridge positions count the residues as written; N and C are the ends. Square brackets hold non-standard residues; d marks the D form. Side chains are listed from the residue outwards. Ends that are not written are not given here. Peptide text beside a SMILES is read from it. * marks the point of attachment. C18 diacid = O=C(O)CCCCCCCCCCCCCCCCC(=O)*; γGlu = O=C(O)[C@H](CCC(=O)[*:2])N[*:1]; Fumaryl(OMe) = COC(=O)/C=C/C(=O)*; Suc = O=C(CCC(=O)[*:2])[*:1]; Dab = NCC[C@H](N)C(=O)O; AEEA = NCCOCCOCC(=O)O

Assays:
human ETB receptor = target: T1, human ETB receptor (Homo sapiens, UniProt P24530); assay: Screening of polypeptides for activity on human ETB receptor (IP-One Gq kit, % of positive control IRL1620); format: cell-based
T1 construct: expressed in transfected cells; host or cells: 293T-17 cells, transient transfection
T1 sequence (P24530 27-442): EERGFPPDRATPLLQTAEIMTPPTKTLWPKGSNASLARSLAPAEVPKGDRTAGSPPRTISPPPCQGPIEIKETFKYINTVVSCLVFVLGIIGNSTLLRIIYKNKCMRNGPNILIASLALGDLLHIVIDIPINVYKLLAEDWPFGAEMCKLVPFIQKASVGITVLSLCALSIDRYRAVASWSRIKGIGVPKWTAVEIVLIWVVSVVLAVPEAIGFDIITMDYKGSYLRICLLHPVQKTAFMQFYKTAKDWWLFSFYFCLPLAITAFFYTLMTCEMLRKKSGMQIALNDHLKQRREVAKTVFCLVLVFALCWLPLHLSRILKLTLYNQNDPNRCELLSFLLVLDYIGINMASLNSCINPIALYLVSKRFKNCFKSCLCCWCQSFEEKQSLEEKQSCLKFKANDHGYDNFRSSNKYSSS
Description: 293T-17 cells were seeded at a density of 650,000 cells per well in a 6-well plate and cultured overnight in an incubator at 37°C and 5% CO2. Afterward, the cells were transfected with an expression vector, PCDNA3.1-hETB which contained a human ETB receptor gene, at a plasmid concentration of 2.5 µg per well. The cells were further cultured for 48 hours, and green fluorescence expression was observed under a fluorescence microscope. The cells were then digested with trypsin and counted. The activity of compounds on the human ETB receptor was determined with the IP-One Gq kit from Cisbio Bioassays. The cells were suspended in Stim Buffer provided in the kit and the cell suspension was added to a 96-well detection plate at 7 µL cell suspension (containing 30,000 cells) per well. The polypeptides to be screened for activity (prepared according to the Preparation Example of the invention) and polypeptide IRL1620 as positive control were dissolved in Stim B to be at a concentration of 2×, and 7 µL was added to the test cells, while 7 µL of PBS solution was added to the cells in the negative control wells. IRL1620 was used as the positive control polypeptide. The plate was sealed and incubated at 37°C for 1 hour in a cell culture incubator. Test wells, positive control wells, and PBS control wells were each added with 3 µL of IP1 d2 working solution and 3 µL of IP1 Tb cryptotate Antibody working solution. The plate was then sealed and incubated in the dark at room temperature (25°C±5°C) for 1 hour. The plate seal was removed, and the […] at 665 nm and 620 nm was measured with an ID5 microplate reader. The ratio of the acceptor emission signal to the donor emission signal, i.e., the value of (signal at 665 nm/signal at 620 nm)×10^4, was calculated for each well. With F1 representing the average value of values of signal at 665 nm/signal at 620 nm determined for the test sample at a specific concentration, F2 representing the average value of values of signal at 665 nm/signal at 620 nm determined for the positive control IRL1620 at the same concentration, and T1 representing the average value of values of signal at 665 nm/signal at 620 nm determined for the PBS negative control, the percentage of activity of the test polypeptide sample relative to the positive control sample IRL1620 is equal to (F1-T1)×100/(F2-T1). hETB sequence (NCBI accession number NM_000115.5).

human ETA receptor = target: T2, human ETA receptor (Homo sapiens, UniProt P25101); assay: Selectivity of polypeptides on human ETA receptor (IP-One Gq kit, % of positive control ET1); format: cell-based
T2 construct: expressed in transfected cells; host or cells: 293T-17 cells, transient transfection
T2 sequence (P25101 21-427): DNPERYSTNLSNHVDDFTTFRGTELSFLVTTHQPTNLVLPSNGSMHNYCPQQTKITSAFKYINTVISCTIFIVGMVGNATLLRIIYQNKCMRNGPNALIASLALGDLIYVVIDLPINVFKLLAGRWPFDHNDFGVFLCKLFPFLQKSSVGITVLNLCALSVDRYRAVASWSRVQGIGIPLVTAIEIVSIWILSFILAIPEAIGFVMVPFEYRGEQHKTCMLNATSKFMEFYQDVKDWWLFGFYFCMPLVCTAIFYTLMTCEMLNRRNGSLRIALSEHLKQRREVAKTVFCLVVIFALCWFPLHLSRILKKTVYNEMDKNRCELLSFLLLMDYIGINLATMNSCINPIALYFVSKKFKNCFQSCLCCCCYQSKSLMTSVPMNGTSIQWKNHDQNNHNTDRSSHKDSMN
Description: 293T-17 cells were seeded at a density of 650,000 cells per well in a 6-well plate and cultured overnight in an incubator at 37°C and 5% CO2. Afterward, the cells were transfected with an expression vector, PCDNA3.1-hETA which contained a human ETA receptor gene, at a plasmid concentration of 2.5 µg per well. The cells were further cultured for 48 hours, and green fluorescence expression was observed under a fluorescence microscope. The cells were then digested with trypsin and counted. The activity of compounds on the human ETA receptor was determined with the IP-One Gq kit from Cisbio Bioassays. The cells were suspended in Stim Buffer provided in the kit and the cell suspension was added to a 96-well detection plate at 7 µL cell suspension (containing 30,000 cells) per well. The polypeptides to be screened for activity (prepared according to the Preparation Example of the invention) and polypeptide human endothelin ET1 as positive control were dissolved in Stim B to be at a concentration of 2×, and 7 µL was added to the test cells, while 7 µL of PBS solution was added to the cells in the negative control wells. Human endothelin ET1 (ET1: […] (C1-C15,C3-C11)) set forth in SEQ ID No. 85 was used as the positive control polypeptide. The plate was sealed and incubated at 37°C for 1 h in a cell culture incubator. Detection wells, positive control wells, and PBS control wells were each added with 3 µL of IP1 d2 working solution and 3 µL of IP1 Tb cryptotate Antibody working solution. The plate was sealed and incubated in the dark at room temperature (25°C±5°C) for 1 h. The plate seal was removed, and the […] at 665 nm and 620 nm was measured with an ID5 microplate reader. The ratio of the acceptor emission signal to the donor emission signal, i.e., the value of (signal at 665 nm/signal at 620 nm)×10^4, was calculated for each well. With F3 representing the average value of values of signal at 665 nm/signal at 620 nm determined for the test sample at a specific concentration, F5 representing the average value of values of signal at 665 nm/signal at 620 nm determined for the positive control human endothelin ET1 at the same concentration, and T3 representing the average value of values of signal at 665 nm/signal at 620 nm determined for the PBS negative control, the percentage of activity of the test polypeptide sample relative to the positive control sample ET1 = (F3-T3)×100/(F5-T3) (see Table 6). hETA sequence (NCBI accession number L06622.1).

[1] = Determination of half-lives of polypeptides (plasma, LC-MS)

Row | Compound | hETBR agonist activity, percentage of activity relative to IRL1620 (human ETB receptor) [%@100nM] | hETBR agonist activity, percentage of activity relative to IRL1620 (human ETB receptor; @10nM) [%@10nM] | hETAR agonist activity, percentage of activity relative to ET1 (human ETA receptor) [%@100µM] | hETAR agonist activity, percentage of activity relative to ET1 (human ETA receptor; @10µM) [%@10µM] | also measured
1 | Fum-D cyclo(EEAK)YFAHK(-γE-AEEA-AEEA-ODDA)DVIW [BX-100] | 15.03 | 18.79 | 9.52 | -39.09 | 
2 | Suc-D cyclo(EEAK)YFAHK(-γE-AEEA-AEEA-ODDA)DIIW [BX-77] | 4.69 | -16.59 | -6.32 | -29.53 | 
3 | CC[C@H](C)[C@H](NC(=O)[C@H](CC(=O)O)NC(=O)[C@H](CC(C)C)NC(=O)[C@H](Cc1c[nH]cn1)NC(=O)[C@H](C)NC(=O)[C@H](Cc1ccccc1)NC(=O)[C@H](Cc1ccc(O)cc1)NC(=O)[C@@H]1CSSC[C@H](NC(=O)[C@H](CCC(=O)O)NC(=O)[C@H](CC(=O)O)NC(=O)CCC(=O)O)C(=O)N[C@@H](CCC(=O)O)C(=O)N[C@@H](CCC(=O)O)C(=O)N1)C(=O)N[C@H](C(=O)N[C@@H](Cc1c[nH]c2ccccc12)C(=O)O)[C@@H](C)CC [BX-56] (Suc-DECEECYFAHLDIIW-OH; disulfide 3-6) |  |  |  |  | half-life ([1]; C57 BL/6, mouse, plasma, iv): 8.9 min; AUClast 0-30 min ([1]; C57 BL/6 mice, i.v., dosage per compound 0.48, 0.96 or 1 mpk): 1376 ng·h/mL
4 | Fum-D cyclo(EEAK)YFAHLD(2-Abu)IW [BX-64] | 132.16 | 79.92 | 6.41 | -13.52 | 
5 | Suc-D cyclo(EEAK)YFAHLD(2-Abu)IW [BX-63] | 122.93 | 90.08 | 4.43 | -15.24 | 
6 | Suc-DEEAVYFAHK(-γE-AEEA-AEEA-ODDA)DVIW (Suc-DEEAVYFAHK([γGlu-AEEA-AEEA-C18 diacid])DVIW) [BX-78] | 23.41 | -14.2 | -23.02 | -6.06 | 
7 | Suc-D cyclo(EEAK)YFAHK(-γE-AEEA-AEEA-ODDA)DVIW [BX-79] | 19.85 | 2.13 | -12.17 | -46.08 | 
8 | CC[C@H](C)[C@H](NC(=O)[C@H](CC(=O)O)NC(=O)[C@H](CCCCN)NC(=O)[C@H](Cc1c[nH]cn1)NC(=O)[C@H](C)NC(=O)[C@H](Cc1ccccc1)NC(=O)[C@H](Cc1ccc(O)cc1)NC(=O)[C@@H](NC(=O)[C@H](CCC(=O)O)NC(=O)[C@H](CCC(=O)O)NC(=O)[C@H](CCC(=O)O)NC(=O)[C@H](CC(=O)O)NC(=O)/C=C/C(=O)OC)C(C)C)C(=O)N[C@H](C(=O)N[C@@H](Cc1c[nH]c2ccccc12)C(=O)O)[C@@H](C)CC [BX-58] ({Fumaryl(OMe)}-DEEEVYFAHKDIIW-OH) |  |  |  |  | activation at 10 µM (human ETA receptor; @10µM, read-out: hETAR agonist activity, percentage of activity relative to ET1): -5.95%; activation at 100 µM (human ETA receptor; @100µM, read-out: hETAR agonist activity, percentage of activity relative to ET1): -2.01%
9 | Fum-DEE cyclo(EVYFK)HKD(2-Abu)IW [BX-62] | 129.39 | 99.31 |  |  | hETAR agonist activity, percentage of activity relative to ET1 (human ETA receptor; @10nM): -17.37%@10nM; hETAR agonist activity, percentage of activity relative to ET1 (human ETA receptor; @100nM): -19.09%@100nM
10 | CC[C@H](C)[C@H](NC(=O)[C@H](CC(=O)O)NC(=O)[C@H](CC(C)C)NC(=O)[C@H](Cc1c[nH]cn1)NC(=O)[C@H](C)NC(=O)[C@H](Cc1ccccc1)NC(=O)[C@H](Cc1ccc(O)cc1)NC(=O)[C@@H]1CCNC(=O)CC[C@H](NC(=O)[C@H](CC(=O)O)NC(=O)CCC(=O)O)C(=O)N[C@@H](CCC(=O)O)C(=O)N[C@@H](C)C(=O)N1)C(=O)N[C@H](C(=O)N[C@@H](Cc1c[nH]c2ccccc12)C(=O)O)[C@@H](C)CC [BX-49] (Suc-DEEA[Dab]YFAHLDIIW-OH; lactam 2-5) |  |  |  |  | activation at 0.01 µM (human ETA receptor; @10nM, read-out: hETAR agonist activity, percentage of activity relative to ET1): -20.9%; activation at 0.1 µM (human ETA receptor; @100nM, read-out: hETAR agonist activity, percentage of activity relative to ET1): -15.4%
11 | Fum-DEEK(-γE-AEEA-AEEA-ODDA)VYFAHLDIIW (Fum-DEEK with lipidated linker N-terminal) [BX-66] | 60.51 | 7.67 | -0.94 | 13.13 | 
